Reference: patent publication US11396517B1, “Exo-aza spiro inhibitors of menin-MLL interaction” (Janssen Pharmaceutica NV, priority 2017, dated 2022)

target: T1, menin (Homo sapiens, UniProt O00255, T541A); test: Menin/MLL homogenous time-resolved fluorescence (HTRF) assay; type: binding; details: location 1; read-out: (2) location 1 Menin HTRF assay (IC50 (nM))
T1 construct: Menin (a.a. 1-610-6×his tag)
T1 sequence (O00255 with tags, fused parts or gaps T541A): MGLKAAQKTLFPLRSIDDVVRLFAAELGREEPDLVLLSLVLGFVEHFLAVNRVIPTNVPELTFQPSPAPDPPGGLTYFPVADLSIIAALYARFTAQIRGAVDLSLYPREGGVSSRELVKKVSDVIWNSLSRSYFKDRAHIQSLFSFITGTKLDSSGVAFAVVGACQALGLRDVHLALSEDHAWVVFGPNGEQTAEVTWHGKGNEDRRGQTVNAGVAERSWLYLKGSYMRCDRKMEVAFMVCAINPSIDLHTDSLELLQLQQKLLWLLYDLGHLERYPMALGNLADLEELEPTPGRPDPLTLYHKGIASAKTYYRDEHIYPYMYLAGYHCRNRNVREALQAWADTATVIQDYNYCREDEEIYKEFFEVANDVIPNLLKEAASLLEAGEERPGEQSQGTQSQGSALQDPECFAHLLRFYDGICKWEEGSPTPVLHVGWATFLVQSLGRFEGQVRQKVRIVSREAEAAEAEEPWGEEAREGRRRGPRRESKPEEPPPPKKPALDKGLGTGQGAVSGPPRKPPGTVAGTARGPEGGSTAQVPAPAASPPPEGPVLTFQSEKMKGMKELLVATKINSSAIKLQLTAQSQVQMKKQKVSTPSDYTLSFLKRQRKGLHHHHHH
Procedure: 2) Menin/MLL Homogenous Time-Resolved Fluorescence (HTRF) Assay
To an untreated, white 384-well microtiter plate was added 40 nL 200× test compound in DMSO and 4 μL 2× terbium chelate-labeled menin (vide infra for preparation) in assay buffer (40 mM Tris HCl, pH 7.5, 50 mM NaCl, 1 mM DTT and 0.05% Pluronic F-127). After incubation of test compound and terbium chelate-labeled menin for 5 min at ambient temperature, 4 μL 2× FITC-MBM1 peptide (FITC-β-alanine-[…]-NH2 (SEQ ID NO: 23)) in assay buffer was added, the microtiter plate centrifuged at 1000 rpm for 1 min and the assay mixtures incubated for 15 min at ambient temperature. The relative amount of menin.FITC-MBM1 complex present in an assay mixture is determined by measuring the homogenous time-resolved fluorescence (HTRF) of the terbium/FITC donor/acceptor fluorphore pair using a BMG Pherastar plate reader (ex. 337 nm/terbium em. 490 nm/FITC em. 520 nm) at ambient temperature. The degree of fluorescence resonance energy transfer (the HTRF value) is expressed as the ratio of the fluorescence emission intensities of the FITC and terbium fluorophores (Fern 520 nm/Fem 490 nm). The final concentrations of reagents in the binding assay are […] terbium chelate-labeled menin (location 2), 75 nM FITC-MBM1 peptide and 0.5% DMSO in assay buffer. Dose-response titrations of test compounds are conducted using an 11 point, three-fold serial dilution scheme, starting typically at 25 μM (location 1) or starting typically at 10 μM (location 2).
Compound potencies were determined by first calculating % inhibition at each compound concentration according to equation 1: % inhibition=((HC−LC)−(HTRF^compound−LC))/(HC−LC))*100 (Eqn 1)
Where LC and HC are the HTRF values of the assay in the presence or absence of a saturating concentration of a compound that competes with FITC-MBM1 for binding to menin, and HTRF^compound is the measured HTRF value in the presence of the test compound. FTC and LC HTRF values represent an average of at least 16 replicates per plate.
Where Bottom and Top are the lower and upper asymptotes of the dose-response curve, respectively, IC50 is the concentration of compound that yields 50% inhibition of signal and h is the Hill coefficient.
Preparation of Terbium cryptate labeling of Menin: Menin (a.a. 1-610-6×his tag (“6×his” disclosed as SEQ ID NO: 3)) was labeled with terbium cryptate as follows. 2 mg of Menin was buffer exchanged into 1× phosphate buffered saline. 16 uM Menin was incubated with 4-fold molar excess NHS-terbium cryptate (Cisbio Bioassays, Bedford, Mass.) for 2 hours at room temperature. The labeled protein was purified away from free label by running the reaction over a Superdex 200 Increase 10/300 GL column at 0.75 ml/min. Peak fractions were collected, aliquoted and frozen at −80° C.

Compound | IC50
N#CCc1ccc(C(=O)NC2CC3(CCN(c4ncnc5sc(CC(F)(F)F)cc45)C3)C2)cc1 (mixture of isomers) [Compound 10] | 843 nM
CC(C)CN(C(=O)CCN1CCOCC1)C1CC2(CCN(c3ncnc4sc(CC(F)(F)F)cc34)C2)C1 (mixture of isomers) [Compound 52] | 555 nM
FC(F)(F)Cc1cc2c(N3CCC4(CCC(NCc5ccccc5)C4)C3)ncnc2s1 (single isomer, unassigned) [Compound 4] | 188 nM
FC(F)(F)Cc1cc2c(N3CCC4(CCC(NCc5ccccc5)C4)C3)ncnc2s1 (single isomer, unassigned) [Compound 6] | 472 nM

same assay, conditions: location 2; read-out: (2) location 2 Menin HTRF assay (IC50 (nM))

Compound | IC50
N#CCc1ccc(C(=O)NC2CC3(CCN(c4ncnc5sc(CC(F)(F)F)cc45)C3)C2)cc1 (mixture of isomers) [Compound 10] | 948 nM
Fc1ccccc1NC1CC2(CCN(c3ncnc4sc(CC(F)(F)F)cc34)C2)C1 (mixture of isomers) [Compound 156] | 155 nM
Fc1cccc(NC2CC3(CCN(c4ncnc5sc(CC(F)(F)F)cc45)C3)C2)c1 (mixture of isomers) [Compound 157] | 118 nM
FC(F)(F)Cc1cc2c(N3CCC4(CC(Nc5ccccc5Cl)C4)C3)ncnc2s1 (mixture of isomers) [Compound 159] | 199 nM
FC(F)(F)Cc1cc2c(N3CCC4(CC(Nc5cccc(Cl)c5)C4)C3)ncnc2s1 (mixture of isomers) [Compound 160] | 150 nM
FC(F)(F)Cc1cc2c(N3CCC4(CC(Nc5ccc(Cl)cc5)C4)C3)ncnc2s1 (mixture of isomers) [Compound 161] | 101 nM
Cc1ccccc1NC1CC2(CCN(c3ncnc4sc(CC(F)(F)F)cc34)C2)C1 (mixture of isomers) [Compound 165] | 656 nM
Cc1cccc(NC2CC3(CCN(c4ncnc5sc(CC(F)(F)F)cc45)C3)C2)c1 (mixture of isomers) [Compound 166] | 400 nM
Cc1ccc(NC2CC3(CCN(c4ncnc5sc(CC(F)(F)F)cc45)C3)C2)cc1 (mixture of isomers) [Compound 167] | 98.1 nM
N#CCc1cccc(NC2CC3(CCN(c4ncnc5sc(CC(F)(F)F)cc45)C3)C2)c1 (mixture of isomers) [Compound 173] | 127 nM
CN(CC1CC2(CCN(c3ncnc4sc(CC(F)(F)F)cc34)C2)C1)c1cnn(C)c1 (mixture of isomers) [Compound 197] | 2350 nM
Cn1ncc2ccc(NC3CC4(CCN(c5ncnc6sc(CC(F)(F)F)cc56)C4)C3)cc21 (mixture of isomers) [Compound 206] | 224 nM
Cn1cnc2ccc(NC3CC4(CCN(c5ncnc6sc(CC(F)(F)F)cc56)C4)C3)cc21 (mixture of isomers) [Compound 207] | 210 nM
Cc1noc2cc(NC3CC4(CCN(c5ncnc6sc(CC(F)(F)F)cc56)C4)C3)ccc12 (mixture of isomers) [Compound 215] | 62 nM
CNc1nc(N2CCC3(CC(Nc4ccc5oc(=O)n(CCN6CCN(S(C)(=O)=O)CC6)c5c4)C3)C2)c2cc(CC(F)(F)F)sc2n1 (mixture of isomers) [Compound 248] | 348 nM
CS(=O)(=O)N1CCN(CCn2c(=O)oc3cc(NC4CC5(CCN(c6ncnc7sc(CC(F)(F)F)cc67)C5)C4)ccc32)CC1 (mixture of isomers) [Compound 249] | 272 nM
CN(C(=O)c1ccccc1)C1CC2(CCN(c3ncnc4sc(CC(F)(F)F)cc34)C2)C1 (mixture of isomers) [Compound 260] | > 10000 nM
CS(=O)(=O)N1CCN(CCn2c(=O)oc3ccc(NC4CC5(CCN(c6ncnc7sc(CC(F)(F)F)cc67)C5)C4)cc32)CC1 (mixture of isomers) [Compound 270] | 518 nM
O=c1ccc(NC2CC3(CCN(c4ncnc5sc(CC(F)(F)F)cc45)C3)C2)c[nH]1 (mixture of isomers) [Compound 305] | 148 nM
FC(F)(F)Cc1cc2c(N3CCC4(CC(Nc5cn[nH]c5)C4)C3)ncnc2s1 (mixture of isomers) [Compound 309] | 339 nM
Cn1cc(NC2CC3(CCN(c4ncnc5sc(CC(F)(F)F)cc45)C3)C2)cn1 (mixture of isomers) [Compound 310] | > 10000 nM

Compound | IC50
Cn1c(=O)[nH]c2ccc(NC3CC4(CCN(c5ncnc6sc(CC(F)(F)F)cc56)C4)C3)cc21 (mixture of isomers) [Compound 325] | 1690 nM
CN1CCN(C(=O)c2ccc(NC3CC4(CCN(c5ncnc6sc(CC(F)(F)F)cc56)C4)C3)cc2)CC1 (mixture of isomers) [Compound 336] | 297 nM
N#Cc1cccc(S(=O)(=O)NC2CC3(CCN(c4ncnc5sc(CC(F)(F)F)cc45)C3)C2)c1 (mixture of isomers) [Compound 415] | 473 nM
O=S(=O)(NC1CC2(CCN(c3ncnc4sc(CC(F)(F)F)cc34)C2)C1)c1cccc(C(F)(F)F)c1 (mixture of isomers) [Compound 416] | 433 nM
O=S(=O)(NC1CC2(CCN(c3ncnc4sc(CC(F)(F)F)cc34)C2)C1)c1ccc(C(F)(F)F)cc1 (mixture of isomers) [Compound 417] | 221 nM
O=c1cc(NC2CC3(CCN(c4ncnc5sc(CC(F)(F)F)cc45)C3)C2)cc[nH]1 (mixture of isomers) [Compound 424] | 576 nM
CN(C1CC2(CCN(c3ncnc4sc(CC(F)(F)F)cc34)C2)C1)S(=O)(=O)c1cccc(C#N)c1 (mixture of isomers) [Compound 425] | 234 nM
CN(C1CC2(CCN(c3ncnc4sc(CC(F)(F)F)cc34)C2)C1)S(=O)(=O)c1cccc(C(F)(F)F)c1 (mixture of isomers) [Compound 426] | 536 nM
CN(C1CC2(CCN(c3ncnc4sc(CC(F)(F)F)cc34)C2)C1)S(=O)(=O)c1ccc(C(F)(F)F)cc1 (mixture of isomers) [Compound 427] | > 10000 nM
FC(F)(F)Cc1cc2c(N3CC4(CCC(Nc5cn[nH]c5)C4)C3)ncnc2s1 (racemic) [Compound 277] | 949 nM
Cc1nc(N2CC3(CCC(Nc4ccc(CC#N)cc4)C3)C2)c2cc(CC(F)(F)F)sc2n1 (racemic) [Compound 403] | 553 nM
FC(F)(F)Cc1cc2c(N3CCC4(CCC(NCc5ccccc5)C4)C3)ncnc2s1 (single isomer, unassigned) [Compound 4] | 39.9 nM
FC(F)(F)Cc1cc2c(N3CCC4(CCC(NCc5ccccc5)C4)C3)ncnc2s1 (single isomer, unassigned) [Compound 6] | 143 nM
N#CCc1ccc(C(=O)NC2CC3(CCN(c4ncnc5sc(CC(F)(F)F)cc45)C3)C2)cc1 (single isomer, unassigned) [Compound 11] | 3760 nM
N#CCc1ccc(C(=O)NC2CC3(CCN(c4ncnc5sc(CC(F)(F)F)cc45)C3)C2)cc1 (single isomer, unassigned) [Compound 12] | 730 nM
CN(C1CC2(CCN(c3ncnc4sc(CC(F)(F)F)cc34)C2)C1)S(=O)(=O)c1ccccc1 (single isomer, unassigned) [Compound 25] | 510 nM
CN(C1CC2(CCN(c3ncnc4sc(CC(F)(F)F)cc34)C2)C1)S(=O)(=O)c1ccccc1 (single isomer, unassigned) [Compound 26] | 311 nM
CS(=O)(=O)Nc1ccc(C(=O)NC2CC3(CCN(c4ncnc5sc(CC(F)(F)F)cc45)C3)C2)cc1 (single isomer, unassigned) [Compound 28] | > 10000 nM
CS(=O)(=O)Nc1ccc(C(=O)NC2CC3(CCN(c4ncnc5sc(CC(F)(F)F)cc45)C3)C2)cc1 (single isomer, unassigned) [Compound 29] | 316 nM
FC(F)(F)Cc1cc2c(N3CCC4(CCC(Nc5ccccc5)C4)C3)ncnc2s1 (single isomer, unassigned) [Compound 31] | 241 nM
